pIC50: −log10 of the molar value.
Assays:
Assay type in all cases: cell-based, human
[1] = test system: BxPC-3 cells; assay: XTT cell proliferation assay, BxPC-3
Procedure: (§1) Human PDAC (AsPC-1, BxPC-3, Panc-1 scr, Panc-1 p53-R273H knock-out (KO) hTERT-HPNE), breast (MCF-7), lung (A549), and colon (HT-29) cancer cell lines were purchased from the American Type Culture Collection (ATCC). The MCF-7, A549, Panc-1 scr, Panc-1 p53 KO and HT-29 cell lines were grown in Dulbecco's Modified Eagle Medium (DMEM; Biological Industries, Beit HaEmek (BI), Israel), and the BxPC-3 and AsPC-1 cell lines were cultured in Roswell Park Memorial Institute-1640 (RPMI-1640; BI, Israel) medium. All media was supplemented with 10% fetal bovine serum (FBS), 200 μM L-glutamine (BI), and 1% penicillin-streptomycin (BI). Cells were cultured at 37° C. in a 5% CO2 humidified incubator.
(§2) Eravacycline dihydrochloride (MedChem Express (MCE)) was dissolved in […] (DDW). Tigecycline (MCE) and omadacycline (MCE) were dissolved in dimethyl sulphoxide (DMSO). All drugs were prepared as 100 mM stock solutions. All cell lines were treated with DMSO as a control (less than 0.1%) or tigecycline, omadacycline, or eravacycline (at the indicated concentrations) for 72 hours. Cell viability and proliferation were determined using the XTT Cell Proliferation Assay Kit (Promega).
(§3) The XTT Cell Proliferation Assay Kit was used to determine cell viability and proliferation. Cells were seeded in 96-well plates at a density of 4,000 cells per well and allowed to attach overnight in a 5% CO2 incubator at 37° C. After overnight incubation, cells were treated with culture medium or in a medium containing tigecycline, omadacycline, or eravacycline at different concentrations (1, 2, 5, 10, 25, and 50 μM) for the indicated time period. Then, 50 μl XTT reaction solution (0.1 ml activation solution+5 ml XTT reagent solution) was added to each well, and the plate was incubated at 37° C. for two hours. After shaking the plate gently to distribute the dye in the wells, the absorbance was measured with a spectrophotometer (Bio-RadiMark Microplate Absorbance reader) at a wavelength of 450 nm and a reference wavelength of 655 nm.
(§4) To evaluate the half maximal inhibitory concentration (IC50) of tetracycline derivatives on five different cell lines (MCF-7, A549, HT-29, BxPC-3, and AsPC-1), the cells were seeded and allowed to attach overnight. All cells were washed with phosphate buffered saline (PBS) and then cultured in fresh media containing the drugs tigecycline, omadacycline, or eravacycline at an increasing concentration (0-50 μM) for 72 h. Inhibition of cell proliferation was determined using the XTT Cell Proliferation Assay Kit.
(§5) To investigate the effect of tetracycline derivatives on cell proliferation in human breast, lung, colon, and PDAC cells, the inventors treated all cell lines (MCF-7, A549, HT-29, BxPC-3, and AsPC-1) with different concentrations of tigecycline, omadacycline, and eravacycline (1, 2, 5, 10, 25, and 50 μM), with medium used as a control, for 72 h. Then, an XTT assay was performed to determine the growth inhibition rate.

[2] = test system: POLK; assay: Western blot of POLK protein expression in BxPC-3 cells; conditions: BxPC-3, 72 h, increasing concentrations
[3] = test system: p53 (mutated in BxPC-3); assay: Western blot of p53 protein expression in BxPC-3 cells; conditions: BxPC-3, 72 h, increasing concentrations
[4] = test system: AsPC-1 cells; assay: XTT cell proliferation assay, AsPC-1
Procedure: as §1, §2, §3, §4, §5

[5] = test system: A549 cells; assay: XTT cell proliferation assay, A549; conditions: A549, 72 h, 1-50 μM
Procedure: as §1, §2
(§6) The XTT Cell Proliferation Assay Kit was used to determine cell viability and proliferation. Cells were seeded in 96-well plates at a density of 4,000 cells per well and allowed to attach overnight in a 5% CO2 incubator at 37° C. […] After shaking the plate gently to distribute the dye in the wells, the absorbance was measured with a spectrophotometer (Bio-RadiMark Microplate Absorbance reader) at a wavelength of 450 nm and a reference wavelength of 655 nm.
(§7) To evaluate the half maximal inhibitory concentration (IC50) of tetracycline derivatives on five different cell lines (MCF-7, A549, HT-29, BxPC-3, and AsPC-1), the cells were seeded and allowed to attach overnight. […] Inhibition of cell proliferation was determined using the XTT Cell Proliferation Assay Kit. […]

[6] = test system: MCF-7 cells; assay: XTT cell proliferation assay, MCF-7; conditions: MCF-7, 72 h, 1-50 μM
Procedure: as §1, §2, §6, §7

[7] = test system: HT-29 cells; assay: XTT cell proliferation assay, HT-29; conditions: HT-29, 72 h, 1-50 μM
Procedure: as §1, §2, §6, §7

SMILES	decrease in cell growth ([1]; BxPC-3, 1 μM, 72 h)	decrease in cell growth ([1]; BxPC-3, 10 μM, 72 h)	POLK protein expression vs control [2]	p53 protein expression vs control [3]	effect on cell survival / viability (in words) ([1]; BxPC-3, 72 h, 1-50 μM)	effect on cell survival / viability (in words) ([4]; AsPC-1, 72 h, 1-50 μM)	effect on cell survival / proliferation (in words) [5]	effect on cell survival / proliferation (in words) [6]	effect on cell survival / proliferation (in words) [7]	suppression of proliferation, up to ([1]; BxPC-3, 72 h, concentration-dependent, 1-50 μM)	cytotoxicity at 25 µM ([1]; Homo sapiens, BXPC-3, 72 h, BxPC-3, 25 μM, 72 h, read-out: decrease in cell growth / viability)	pIC50 ([1]; Homo sapiens, BXPC-3, 72 h, read-out: IC50, inhibition of cell proliferation)	suppression of proliferation, up to ([4]; AsPC-1, 72 h, concentration-dependent, 1-50 μM)	pIC50 ([4]; Homo sapiens, ASPC1, 72 h, read-out: IC50, inhibition of cell proliferation)	suppression of proliferation, up to ([5]; concentration-dependent)
COc1cccc2c1C(=O)c1c(O)c3c(c(O)c1C2=O)C[C@@](O)(C(=O)CO)C[C@@H]3O[C@H]1C[C@H](N)[C@H](O)[C@H](C)O1 [doxorubicin]	67%	94%	Neither gemcitabine nor doxorubicin reduced	Neither gemcitabine nor doxorubicin reduced											
Nc1ccn([C@@H]2O[C@H](CO)[C@@H](O)C2(F)F)c(=O)n1 [gemcitabine]	77%	80%	Neither gemcitabine nor doxorubicin reduced	Neither gemcitabine nor doxorubicin reduced											
CN(C)c1cc(CNCC(C)(C)C)c(O)c2c1C[C@H]1C[C@H]3[C@H](N(C)C)C(O)=C(C(N)=O)C(=O)[C@@]3(O)C(O)=C1C2=O [omadacycline]					no significant effect on cell survival	no significant effect on cell survival	no significant effect on cell survival	no significant effect on cell survival	no significant effect on cell survival						
CN(C)c1cc(NC(=O)CNC(C)(C)C)c(O)c2c1C[C@H]1C[C@H]3[C@H](N(C)C)C(O)=C(C(N)=O)C(=O)[C@@]3(O)C(O)=C1C2=O [tigecycline]								no significant effect	no significant effect	60-65%	60%	5.00	60-65%	5.34	60-65%

Source: patent US20250325565A1, “ERAVACYCLINE FOR TREATING CANCER” (B. G. NEGEV TECHNOLOGIES AND APPLICATIONS LTD., priority 2022, published 2025)
